molecular target: T1, TRPML1 (Homo sapiens, UniProt Q9GZU1); assay: Cellular TRPML1 assay (FLIPR TETRA, GCaMP6f calcium read-out); format: cell-based; conditions: HEK T-REx/GCaMP6f/TRPML1 cells; Ca2+ response over 300 s, normalized to ML-SA1 50 μM; Ca2+ free or Optimem condition not given; read-out: Ec50 (Activity of TRPML1 agonists)
T1 construct: expressed in transfected cells
Experimental: Buffers and reagents • PBS (D-PBS without calcium and magnesium; EuroClone) • Trypsin (Trypsin 0.05%, EDTA 0.02% in PBS; EuroClone) • DMSO (Sigma) • Ca^2+ free Tyrode's buffer: in-house solution (130 mM NaCl, 5 mM KCl, 1 mM MgCl2, 5 mM NaHCO3, 20 mM HEPES in water at pH 7.4; sterile filtered). • Opti-MEM (Gibco) • Agonist: ML-SA1 (Sigma); stock: 60 mM in DMSO, stored at −20° C. • Blocker: ML-SI3 (in house synthesis); stock: 20 mM in DMSO, stored at −20° C.
The final clone for the TRPML1 assay is HEK T-REx/GCaMP6f/TRPML1.
GCaMP6f is a genetically encoded calcium indicator that is stably expressed in this cell line and used as a fluorescent read-out.
Experiments are performed in 384 MTP format. Cells are seeded at 15000 cells/well either in 25 μl/well of growth medium or in 20 μl/well of Optimem+0.5% FBS without selection antibiotics. Twenty-four hours later, cells are assayed for the response to various compounds using the Ca^2+ sensitive GCaMP6f protein stably expressed in the cells as readout.
The experiment is performed in a 384-well format according to the following procedures for either Ca^2+ free or Optimem conditions: • Ca^2+ free condition (in absence of extracellular Ca^2+): • 24 h after seeding, pre-incubate the cells at room temperature for about 10′. • Then remove the culture medium and replace it with 20 μL of Ca^2+ free Tyrode's buffer. • Start the experiment at the FLIPR^TETRA by injecting 10 μL/w of 3× concentrated test compounds and controls in Ca^2+ free Tyrode's buffer. Monitor the kinetic response over a period of 300 seconds. • Final DMSO concentration: 0.5% • Optimem condition (in presence of extracellular Ca^2+): • 24 h after seeding, pre-incubate the cells at room temperature for about 10′. • Start the experiment at the FLIPR^TETRA by injecting 10 μL/w of 3× concentrated test compounds and controls in Ca^2+ free Tyrode's buffer. Monitor the kinetic response over a period of 300 seconds. • Final DMSO concentration: 0.5%
Data from FLIPR^TETRA measurements are analyzed with the Genedata Screener® software.
Stimulator controls (Col 2): injection of ML-SA1 EC100 (50 μM) in alternated wells positions
Neutral controls (Col 2): injection of 0 mM Ca^2+ free Tyrode's buffer in alternated wells positions.
Test wells (Col 3-22): test compounds dose response curve from either 100 μM with 1:2 dilution steps or from 50 μM with 1:3.16 dilution steps.

T1 sequence (Q9GZU1 whole entry): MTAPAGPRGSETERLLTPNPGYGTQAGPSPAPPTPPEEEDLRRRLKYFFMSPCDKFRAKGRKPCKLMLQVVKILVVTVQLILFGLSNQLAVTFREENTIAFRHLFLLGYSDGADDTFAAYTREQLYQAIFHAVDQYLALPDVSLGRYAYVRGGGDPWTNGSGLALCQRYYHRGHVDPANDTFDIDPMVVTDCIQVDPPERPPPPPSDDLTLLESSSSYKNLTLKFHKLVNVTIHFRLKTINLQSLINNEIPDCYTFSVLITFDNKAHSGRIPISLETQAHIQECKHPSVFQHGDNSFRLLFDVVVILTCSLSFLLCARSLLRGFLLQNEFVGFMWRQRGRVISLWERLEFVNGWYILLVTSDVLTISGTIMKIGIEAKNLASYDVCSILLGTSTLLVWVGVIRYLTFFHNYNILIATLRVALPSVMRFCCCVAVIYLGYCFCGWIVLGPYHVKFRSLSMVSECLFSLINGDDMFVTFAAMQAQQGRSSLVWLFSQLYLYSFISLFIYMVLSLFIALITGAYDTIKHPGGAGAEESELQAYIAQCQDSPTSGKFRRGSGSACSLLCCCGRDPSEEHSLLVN

SMILES | EC50
CN(C)S(=O)(=O)c1ccc(S(=O)(=O)Nc2ccccc2N2CCC(c3ccccc3)C2)cc1 (stereo not drawn) [Example 37, N1,N1-dimethyl-N4-[2-(3-phenylpyrrolidin-1-yl)phenyl]benzene-1,4-disulfonamide] | 6.3 µM
CN(C)S(=O)(=O)c1ccc(S(=O)(=O)Nc2ccccc2N2CCC(O)CC2)cc1 [Example 38, N1-(2-(4-hydroxypiperidin-1-yl)phenyl)-N4,N4-dimethylbenzene-1,4-disulfonamide] | 34.5 µM
CC(C)Oc1ccc(S(=O)(=O)Nc2ccccc2N2CCCCC2)cc1 [Example 39, 4-isopropoxy-N-(2-(piperidin-1-yl)phenyl)benzenesulfonamide] | 54.5 µM
CN(C)S(=O)(=O)c1ccc(S(=O)(=O)Nc2ccccc2N2CCCOCC2)cc1 [Example 43, N1-(2-(l,4-oxazepan-4-yl)phenyl)-N4,N4-dimethylbenzene-1,4-disulfonamide] | 7 µM
CN(C)S(=O)(=O)c1ccc(S(=O)(=O)Nc2ccccc2N2CCC(F)CC2)cc1 [Example 44, N1-(2-(4-fluoropiperidin-1-yl)phenyl)-N4,N4-dimethylbenzene-1,4-disulfonamide] | 2.6 µM
CCCOC1CCN(c2ccccc2NS(=O)(=O)c2ccc(S(=O)(=O)N(C)C)cc2)CC1 [Example 45, N1,N1-dimethyl-N4-(2-(4-propoxypiperidin-1-yl)phenyl)benzene-1,4-disulfonamide] | 1.9 µM
Cc1ccccc1S(=O)(=O)Nc1ccccc1N1CCN(C(=O)OC(C)(C)C)CC1 [Example 47, tert-butyl 4-(2-((2-methylphenyl)sulfonamido)phenyl)piperazine-1-carboxylate] | 5.2 µM
CN(C(=O)c1ccc(S(=O)(=O)N(C)C)cc1)c1ccccc1N1CC2CCC1C2 (stereo not drawn) [Example 49, N-(2-{2-azabicyclo[2.2.1]heptan-2-yl}phenyl)-4-(dimethylsulfamoyl)-N-methylbenzamide] | 29.3 µM
Cc1ccc(S(=O)(=O)Nc2ccccc2N2CCN(C(=O)OC(C)(C)C)CC2)c(C)c1 [Example 50, tert-butyl 4-(2-((2,4-dimethylphenyl)sulfonamido)phenyl)piperazine-1-carboxylate] | 2.2 µM
Cc1ccc(S(=O)(=O)Nc2ccccc2N2CCN(C(=O)OC(C)(C)C)CC2)cc1C [Example 51, tert-butyl 4-(2-((3,4-dimethylphenyl)sulfonamido)phenyl)piperazine-1-carboxylate] | 3 µM
Cc1cc(C)cc(S(=O)(=O)Nc2ccccc2N2CCN(C(=O)OC(C)(C)C)CC2)c1 [Example 54, tert-butyl 4-(2-((3,5-dimethylphenyl)sulfonamido)phenyl)piperazine-1-carboxylate] | 20 µM
CN(C)S(=O)(=O)c1ccc(S(=O)(=O)NC2CCCCC2N2CCC(c3ccccc3)CC2)cc1 (stereo not drawn) [Example 55, N1,N1-dimethyl-N4-[2-(4-phenylpiperidin-1-yl)cyclohexyl]benzene-1,4-disulfonamide] | 6.1 µM
Cc1nc(C)c(S(=O)(=O)Nc2ccccc2N2CCN(C(=O)OC(C)(C)C)CC2)s1 [Example 56, tert-butyl 4-(2-((2,4-dimethylthiazole)-5-sulfonamido)phenyl)piperazine-1-carboxylate] | 3.6 µM
Cc1cc(S(=O)(=O)Nc2ccccc2N2CCN(C(=O)OC(C)(C)C)CC2)c(C)s1 [Example 59, tert-butyl 4-(2-((2,5-dimethylthiophene)-3-sulfonamido)phenyl)piperazine-1-carboxylate] | 1.6 µM
Cc1cncc(S(=O)(=O)Nc2ccccc2N2CCN(C(=O)OC(C)(C)C)CC2)c1 [Example 60, tert-butyl 4-(2-((5-methylpyridine)-3-sulfonamido)phenyl)piperazine-carboxylate] | 7.3 µM
CN(C)S(=O)(=O)c1ccc(S(=O)(=O)NC2CCCCC2N2CCOCC2)cc1 (stereo not drawn) [Example 61, N1,N1-dimethyl-N4-[2-(morpholin-4-yl)cyclohexyl]benzene-1,4-disulfonamide] | 39.5 µM
Cc1noc(C)c1S(=O)(=O)Nc1ccccc1N1CCN(C(=O)OC(C)(C)C)CC1 [Example 64, tert-butyl 4-(2-((3,5-dimethylisoxazole)-4-sulfonamido)phenyl)piperazine-1-carboxylate] | 36.4 µM

SMILES | EC50
CCCOC1CCN(c2ccccc2NS(=O)(=O)c2ccc(C)cc2C)CC1 [Example 66, 2,4-dimethyl-N-(2-(4-propoxypiperidin-1-yl)phenyl)benzenesulfonamide] | 22.1 µM
CCCOC1CCN(c2ccccc2NS(=O)(=O)c2cc(C)oc2C)CC1 [Example 67, 2,5-dimethyl-N-(2-(4-propoxypiperidin-1-yl)phenyl)furan-3-sulfonamide] | 37.8 µM
CCC(=O)N1CCN(c2ccccc2NS(=O)(=O)c2ccc(S(=O)(=O)N(C)C)cc2)CC1 [Example 71, N1,N1-dimethyl-N4-[2-(4-propanoylpiperazin-1-yl)phenyl]benzene-1,4-disulfonamide] | 17.3 µM
CN1CCc2cc(S(=O)(=O)Nc3ccccc3N3CCN(C(=O)OC(C)(C)C)CC3)ccc21 [Example 72, tert-butyl 4-(2-((l-methylindoline)-5-sulfonamido)phenyl)piperazine-1-carboxylate] | 3 µM
CN(C)S(=O)(=O)c1ccc(S(=O)(=O)Nc2ccccc2N2CCN(C(=O)c3cccs3)CC2)cc1 [Example 79, N1,N1-dimethyl-N4-{2-[4-(thiophene-2-carbonyl)piperazin-1-yl]phenyl}benzene-1,4-disulfonamide] | 8.8 µM
Cc1ncsc1C(=O)N1CCN(c2ccccc2NS(=O)(=O)c2ccc(S(=O)(=O)N(C)C)cc2)CC1 [Example 80, N1,N1-dimethyl-N4-{2-[4-(4-methyl-1,3-thiazole-5-carbonyl)piperazin-1-yl]phenyl}benzene-1,4-disulfonamide] | 18.9 µM
CN(C)S(=O)(=O)c1ccc(S(=O)(=O)Nc2ccccc2N2CCN(C(=O)Cc3cccs3)CC2)cc1 [Example 81, N1,N1-dimethyl-N4-(2-{4-[2-(thiophen-2-yl)acetyl]piperazin-1-yl}phenyl)benzene-1,4-disulfonamide] | 11.1 µM
CN(C)S(=O)(=O)c1ccc(S(=O)(=O)Nc2ccccc2N2CCC(Oc3cccnc3)CC2)cc1 [Example 86, N1,N1-dimethyl-N4-{2-[4-(pyridin-3-yloxy)piperidin-1-yl]phenyl}benzene-1,4-disulfonamide] | 5.7 µM
CCCNC(=O)C1CCN(c2ccccc2NS(=O)(=O)c2ccc(S(=O)(=O)N(C)C)cc2)CC1 [Example 87, 1-{2-[4-(dimethylsulfamoyl)benzenesulfonamido]phenyl}-N-propylpiperidine-4-carboxamide] | 18.5 µM
CN(C)S(=O)(=O)c1ccc(S(=O)(=O)Nc2ccccc2N2CCC(Oc3ncccn3)CC2)cc1 [Example 89] | 3.2 µM
Cc1ccc(S(=O)(=O)Nc2ccccc2N2CCN(C(=O)OC(C)(C)C)CC2)c2cccnc12 [Example 95, tert-butyl 4-(2-((8-methylquinoline)-5-sulfonamido)phenyl)piperazine-1-carboxylate] | 10.7 µM
Cc1cc(S(=O)(=O)Nc2ccccc2N2CCC(Oc3ccccn3)CC2)c(C)s1 [Example 97, 2,5-dimethyl-N-(2-(4-(pyridin-2-yloxy)piperidin-1-yl)phenyl)thiophene-3-sulfonamide] | 2.8 µM
Cc1ccc(S(=O)(=O)Nc2ccccc2N2CCC(Oc3ccccn3)CC2)cn1 [Example 98, 6-methyl-N-(2-(4-(pyridin-2-yloxy)piperidin-1-yl)phenyl)pyridine-3-sulfonamide] | 3.3 µM
CN(C)S(=O)(=O)c1ccc(S(=O)(=O)Nc2ccccc2N2CCOC(c3ccccc3)C2)cc1 (stereo not drawn) [Example 100, N1,N1-dimethyl-N4-(2-(2-phenylmorpholino)phenyl)benzene-1,4-disulfonamide] | 6.8 µM
CN(C)S(=O)(=O)c1ccc(S(=O)(=O)Nc2ccccc2N2CCOC(Cc3ccccc3)C2)cc1 (stereo not drawn) [Example 101, N1-(2-(2-benzylmorpholino)phenyl)-N4,N4-dimethylbenzene-1,4-disulfonamide] | 4 µM
CC(C)N(C(=O)c1ccc(S(C)(=O)=O)cc1)c1ccccc1N1CCC(Oc2cnccn2)CC1 [Example 103, N-isopropyl-4-(methylsulfonyl)-N-(2-(4-(pyrazin-2-yloxy)piperidin-1-yl)phenyl)benzamide] | 14.8 µM

— patent US20230010299A1, “HETEROCYCLIC TRPML1 AGONISTS” (LIBRA THERAPEUTICS, INC., priority 2019, published 2023)
